Experimental data taken from patent US20100047776A1, “Cell-based screening assays for compounds that regulate the expresion of a tumor marker dj-1” (Caritas St. Elizabeth Medical Center of Boston Inc., priority 2005, published 2010).

Experiments:
[1] = tested on: 0DJ-Luc (luciferase gene lacking the DJ-1 promoter sequence); assay: Luciferase reporter assay in control cell lines expressing 0DJ-Luc; assay type: cell-based, human; conditions: H2O2 treatment
Description: (§1) To develop a cell-based assay system where one can identify agents that transcriptionally modulate DJ-1, a plasmid vector (−1000DJ-Luc) was made that expressed a luciferase reporter gene directed by the human DJ-1 promoter containing 1000 base pairs upstream and 65 base pairs downstream sequences (−1000 to +65) of the transcription initiation site (FIG. 1). A […] sequence containing +46 to +65 of the DJ-1 gene was fused to the luciferase gene to generate the control plasmid (0DJLuc). A neomycin resistance gene was inserted into the vectors as a selection marker.
(§2) Using the vector described in Example 1, human SH-SY5Y neuroblastoma cells were transfected with either −1000DJLuc or 0DJLuc; stably transfected clones were subsequently identified. A plasmid encoding β-galactosidase gene was co-transfected to serve as an internal control for luciferase expression.
(§3) To confirm the stable expression of the reporter genes and to evaluate these cells as devices for drug discovery, stably transfected SH-SY5Y cells were treated with increasing doses of H2O2, which has been reported to upregulate DJ-1. […] Luciferase and β-galactosidase activities were then determined. […]
(§4) C. […] Luciferase and β-galactosidase activities were determined using assay kits following manufacturer's protocol (Promega).

human DJ-1 promoter = assay: DJ-1 promoter luciferase reporter assay in SH-SY5Y cells stably expressing −1000DJ-Luc; assay type: cell-based; conditions: SH-SY5Y cells stably expressing −1000DJ-Luc and CMV-β-galactosidase; increasing doses of H2O2 for 24 hours; untreated sample designated as 100; FIG. 2
Description: as §1, §2, §3, §4

Question: How did the “Luciferase activity in control cell lines expressing 0DJ-Luc” value [1] turn out when `OO` [H2O2] was run?
Answer: not affected

Question: And the “Luciferase activity normalized to β-galactosidase activity (human DJ-1 promoter activation)” value (human DJ-1 promoter)?
Answer: activated the human DJ-1 promoter in a dose dependent manner
